The experiment addresses T1, APOL1 (Homo sapiens, UniProt O14791).
T1 sequence (O14791 1-398 S342G/I384M): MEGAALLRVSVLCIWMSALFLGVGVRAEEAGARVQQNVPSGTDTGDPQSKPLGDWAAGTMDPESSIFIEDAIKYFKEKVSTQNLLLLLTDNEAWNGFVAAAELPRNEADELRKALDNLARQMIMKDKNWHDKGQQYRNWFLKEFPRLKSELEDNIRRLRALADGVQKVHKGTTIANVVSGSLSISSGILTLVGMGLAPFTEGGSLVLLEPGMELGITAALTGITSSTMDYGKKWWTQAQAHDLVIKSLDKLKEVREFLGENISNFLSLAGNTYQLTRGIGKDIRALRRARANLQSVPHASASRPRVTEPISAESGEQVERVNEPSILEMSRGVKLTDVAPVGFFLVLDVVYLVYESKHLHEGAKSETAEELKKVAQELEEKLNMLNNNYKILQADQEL
Put plainly: MultiTox-Fluor Multiplex Cytotoxicity Assay in tet-inducible APOL1 T-REx-HEK293 cells (cell rescue, ratio of dead to live cells). It is filed as cell-based. Conditions: tet-inducible transgenic APOL1 T-REx-HEK293 cell lines, 50 ng/mL tet, 24 hours; read-out: IP50 (i.e., IC50 for cell proliferation). The method, boiled down: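 T-REx-HEK293 cells with tet-inducible APOL1 were treated with compound (10 μM top, 10-point 3-fold dilution, duplicate) plus 50 ng/mL tetracycline for 24 h at 37° C, in DMEM with 2% tet-free FBS. MultiTox-Fluor protease signals gave a dead/live ratio, normalized to no tet (100% viability) and tet alone (0%).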

The record followed here is US20250171459A1, “2-METHYL-4',5'-DIHYDROSPIRO[PIPERIDINE-4,7'-THIENO[2,3-C]PYRAN] DERIVATIVES AS INHIBITORS OF APOL1 AND METHODS OF USING SAME” (Vertex Pharmaceuticals Incorporated, priority 2022, published 2025).

Bounds are passed on as bounds.

On to `C[C@H]1C[C@@]2(CCN1Cc1cnn(C[C@@H](O)C(=O)N(C)C)c1)OC[C@@H](O)c1cc(C(F)(F)F)sc12` [Compound 994], for which the IC50 was under 100 nM.
Turning to `C[C@H]1C[C@@]2(CCN1Cc1cnn(C[C@@H](O)C(=O)NC3CC3)c1)OC[C@@H](O)c1cc(C(F)(F)F)sc12` [Compound 995], the IC50 is under 100 nM.
On to `C[C@H]1C[C@@]2(CCN1Cc1cnn(C[C@H](O)C(N)=O)c1)OC[C@@H](O)c1cc(C(F)(F)F)sc12` [Compound 996], for which the IC50 is under 100 nM.
With `CNC(=O)[C@@H](O)Cn1cc(CN2CC[C@]3(C[C@@H]2C)OC[C@@H](O)c2cc(C(F)(F)F)sc23)cn1` [Compound 997], the IC50 was under 100 nM.
For the molecule `C[C@H]1C[C@@]2(CCN1Cc1cnn(C[C@H](O)C(=O)N(C)C)c1)OC[C@@H](O)c1cc(C(F)(F)F)sc12` [Compound 998], the IC50 is under 100 nM.
On to `C[C@H]1C[C@@]2(CCN1Cc1cnn(C[C@H](O)C(=O)NC3CC3)c1)OC[C@@H](O)c1cc(C(F)(F)F)sc12` [Compound 999], for which the IC50 was under 100 nM.
Turning to `C[C@H]1C[C@@]2(CCN1Cc1cn(C(C)(C)CO)nn1)OCCc1c2sc(C(F)(F)F)c1CO` [Compound 1000, 2-[4-[[(2′S, 7R)-3-(hydroxymethyl)-2′-methyl-2-(trifluoromethyl)spiro[4,5-dihydrothieno[2,3-c]pyran-7,4′-piperidine]-1′-yl]methyl]triazol-1-yl]-2-methyl-propan-1-ol], the IC50 was 500 to 1000 nM.
In the case of `C[C@H]1C[C@@]2(CCN1Cc1cn(CCCS(C)(=O)=O)nn1)OCCc1c2sc(C(F)(F)F)c1CO` [Compound 1001], the IC50 was in the range of 100 to 500 nM.
For the molecule `CC(O)Cn1cc(CN2CC[C@]3(C[C@@H]2C)OCCc2c3sc(C(F)(F)F)c2CO)nn1` (stereo partly drawn) [Compound 1002], the IC50 was under 100 nM.
The result for `C[C@H]1C[C@@]2(CCN1Cc1cn(CC(C)(CO)CO)nn1)OCCc1c2sc(C(F)(F)F)c1CO` [Compound 1003] reads under 100 nM; that for `C[C@H]1C[C@@]2(CCN1Cc1cn(C3CCOCC3)nn1)OCCc1c2sc(C(F)(F)F)c1CO` [Compound 1004], 100 to 500 nM.
For `C[C@H]1C[C@@]2(CCN1Cc1cn(CC(O)C(C)(C)O)nn1)OCCc1c2sc(C(F)(F)F)c1CO` (stereo partly drawn) [Compound 1005] the value was under 100 nM.
Regarding `COC(=O)c1c(C(F)(F)F)sc2c1CCO[C@@]21CCN(Cc2cn(CCS(C)(=O)=O)nn2)[C@@H](C)C1` [Compound 1006, Methyl (2′S,7R)-2′-methyl-1′-[[1-(2-methylsulfonylethyl)triazol-4-yl]methyl]-2-(trifluoromethyl)spiro[4,5-dihydrothieno[2,3-c]pyran-7,4′-piperidine]-3-carboxylate], the IC50 was 100 to 500 nM.
For `CCCNC(=O)c1c(C(F)(F)F)sc2c1CCO[C@@]21CCN(Cc2cn(CCS(C)(=O)=O)nn2)[C@@H](C)C1` [Compound 1007, (2′S,7R)-2′-methyl-1′-[[1-(2-methylsulfonylethyl)triazol-4-yl]methyl]-N-propyl-2-(trifluoromethyl)spiro[4,5-dihydrothieno[2,3-c]pyran-7,4′-piperidine]-3-carboxamide] the value was 500 to 1000 nM; for `C[C@H]1C[C@@]2(CCN1Cc1cn(CCS(C)(=O)=O)nn1)OCCc1c2sc(C(F)(F)F)c1C(=O)NCC1CC1` [Compound 1008], 500 to 1000 nM; for `C[C@H]1C[C@@]2(CCN1Cc1cn(CCS(C)(=O)=O)nn1)OCCc1c2sc(C(F)(F)F)c1C(=O)NCC(F)F` [Compound 1009], 500 to 1000 nM.
For `C[C@H]1C[C@@]2(CCN1Cc1cn(CCS(C)(=O)=O)nn1)OCCc1c2sc(C(F)(F)F)c1Cl` [Compound 1010, (2′S, 7R)-3-chloro-2′-methyl-1′-[[1-(2-methylsulfonylethyl)triazol-4-yl]methyl]-2-(trifluoromethyl)spiro[4,5-dihydrothieno[2,3-c]pyran-7,4′-piperidine]], the IC50 is under 100 nM.
Regarding `C[C@H]1C[C@@]2(CCN1Cc1cnn(CCS(C)(=O)=O)c1)OCCc1cc(C(F)(F)C(F)F)sc12` [Compound 1011, (2′S, 7R)-2′-methyl-1′-[[1-(2-methylsulfonylethyl)pyrazol-4-yl]methyl]-2-(1,1,2,2-tetrafluoroethyl)spiro[4,5-dihydrothieno[2,3-c]pyran-7,4′-piperidine]], the IC50 was under 100 nM.
For `C[C@H]1C[C@@]2(CCN1Cc1cnn(CCS(C)(=O)=O)c1)OCC(O)c1cc(C(F)(F)C(F)F)sc12` (stereo partly drawn) [Compound 1012, (2′S, 7R)-2′-methyl-1′-[[1-(2-methylsulfonylethyl)pyrazol-4-yl]methyl]-2-(1,1,2,2-tetrafluoroethyl)spiro[4,5-dihydrothieno[2,3-c]pyran-7,4′-piperidine]-4-ol] the value was under 100 nM; for `[2H]C(OCC)c1cc2c(s1)[C@]1(CCN(Cc3cnn(CCS(C)(=O)=O)c3)[C@@H](C)C1)OCC2` (stereo partly drawn) [Compound 1015, (2′S, 7R)-2-[deuterio(ethoxy)methyl]-2′-methyl-1′-[[1-(2-methylsulfonylethyl)pyrazol-4-yl]methyl]spiro[4,5-dihydrothieno[2,3-c]pyran-7,4′-piperidine]], under 100 nM.
For `C[C@H]1C[C@@]2(CCN1Cc1cnn(CCS(C)(=O)=O)c1)OCCc1cc(CO)sc12` [Compound 1016, [(2′S,7R)-2′-methyl-1′-[[1-(2-methylsulfonylethyl)pyrazol-4-yl]methyl]spiro[4,5-dihydrothieno[2,3-c]pyran-7,4′-piperidine]-2-yl]methanol] the value was 100 to 500 nM; for `COCc1cc2c(s1)[C@]1(CCN(Cc3cnn(CCS(C)(=O)=O)c3)[C@@H](C)C1)OCC2` [Compound 1017, (2′S, 7R)-2-(methoxymethyl)-2′-methyl-1′-[[1-(2-methylsulfonylethyl)pyrazol-4-yl]methyl]spiro[4,5-dihydrothieno[2,3-c]pyran-7,4′-piperidine]], 100 to 500 nM.
In the case of `C[C@H]1C[C@@]2(CCN1Cc1cnn(C)c1)OCCc1cc(CO)sc12` [Compound 1018, [(2′S, 7R)-2′-methyl-1′-[(1-methylpyrazol-4-yl)methyl]spiro[4,5-dihydrothieno[2,3-c]pyran-7,4′-piperidine]-2-yl]methanol], the IC50 was 100 to 500 nM.
In the case of `C[C@H]1C[C@@]2(CCN1Cc1cn(CCS(C)(=O)=O)nn1)OCCc1cc(CO)sc12` [Compound 1019, [(2′S, 7R)-2′-methyl-1′-[[1-(2-methylsulfonylethyl)triazol-4-yl]methyl]spiro[4,5-dihydrothieno[2,3-c]pyran-7,4′-piperidine]-2-yl]methanol], the IC50 lay within 500 to 1000 nM.
Regarding `C[C@H]1C[C@@]2(CCN1Cc1cnn(C)c1)OCCc1cc(C(C)(C)C)sc12` [Compound 1020, (2S,4R)-2′-(tert-butyl)-2-methyl-1-((1-methyl-1H-pyrazol-4-yl)methyl)-4′,5′-dihydrospiro[piperidine-4,7′-thieno[2,3-c]pyran]], the IC50 was 500 to 1000 nM.
The result for `C[C@H]1CC2(CCN1Cc1cnn(C)c1)OC1CCCCC1c1cc(Cl)sc12` (stereo partly drawn) [Compound 1021, (2S)-2′-chloro-2-methyl-1-((1-methyl-1H-pyrazol-4-yl)methyl)-5a′,6′,7′,8′,9′,9a′-hexahydrospiro[piperidine-4,4′-thieno[2,3-c]chromene]] reads 100 to 500 nM; that for `C[C@H]1CC2(CCN1Cc1cnn(CCS(C)(=O)=O)c1)OCC1(CC1)c1cc(Cl)sc12` (stereo partly drawn) [Compound 1022, (2″S)-2′-chloro-2″-methyl-1″-((1-(2-(methylsulfonyl)ethyl)-1H-pyrazol-4-yl)methyl)-5′H-dispiro[cyclopropane-1,4′-thieno[2,3-c]pyran-7′,4″-piperidine]], under 100 nM; that for `C[C@H]1CC2(CCN1Cc1cnn(CCS(C)(=O)=O)c1)OCCc1c2sc2ccccc12` (stereo partly drawn) [Compound 1023, (2′S)-2′-methyl-1′-((1-(2-(methylsulfonyl)ethyl)-1H-pyrazol-4-yl)methyl)-3,4-dihydrospiro[benzo[4,5]thieno[2,3-c]pyran-1,4′-piperidine]], 500 to 1000 nM.
Take `Cc1cc2c(s1)[C@]1(CCN(Cc3cn[nH]c3)[C@@H](C)C1)OCC2` [Compound 1024, (2′S, 7R)-2,2′-dimethyl-1′-(1H-pyrazol-4-ylmethyl)spiro[4,5-dihydrothieno[2,3-c]pyran-7,4′-piperidine]]: the IC50 was under 100 nM.
With `Cc1cc2c(s1)[C@]1(CCN(Cc3cnc(NC(C)(C)CO)nc3)[C@@H](C)C1)OCC2` [Compound 1025], the IC50 is under 100 nM.
`Cc1cc2c(s1)[C@]1(CCN(Cc3cnn(CCS(C)(=O)=O)c3)[C@@H](C)C1)OCC2` [Compound 1026]: the IC50 was under 100 nM.
`Cc1cc2c(s1)[C@]1(CCN(Cc3cnn(CCO)c3)[C@@H](C)C1)OCC2` [Compound 1027, 2-[4-[[(2′S, 7R)-2,2′-dimethylspiro[4,5-dihydrothieno[2,3-c]pyran-7,4′-piperidine]-1′-yl]methyl]pyrazol-1-yl]ethanol]: the IC50 is under 100 nM.
As for `Cc1cc2c(s1)[C@]1(CCN(Cc3cnn(CC(C)(CO)CO)c3)[C@@H](C)C1)OCC2` [Compound 1028, 2-[[4-[[(2′S, 7R)-2,2′-dimethylspiro[4,5-dihydrothieno[2,3-c]pyran-7,4′-piperidine]-1′-yl]methyl]pyrazol-1-yl]methyl]-2-methyl-propane-1,3-diol], the IC50 was under 100 nM.
